pIC50: −log10 of the molar value.
Assays:
RKO [1] = assay: Cytotoxicity against human RKO cells at 5 uM incubated for 72 hrs by MTS assay; type: functional
HCT-116 [2] = assay: Cytotoxicity against human HCT-116 cells at 5 uM incubated for 72 hrs by MTS assay; type: functional
HT-29 [3] = assay: Cytotoxicity against human HT-29 cells at 5 uM incubated for 72 hrs by MTS assay; type: functional
[4] = Cytotoxicity against human NCM460 cells incubated for 72 hrs by MTS assay; type: toxicity, cell-based
HCT-116 [5] = assay: Cytotoxicity against human HCT-116 cells incubated for 72 hrs by MTS assay; type: functional, cell-based; conditions: HCT-116, 72 h
RKO [6] = assay: Cytotoxicity against human RKO cells incubated for 72 hrs by MTS assay; type: functional, cell-based
HT-29 [7] = assay: Cytotoxicity against human HT-29 cells incubated for 72 hrs by MTS assay; type: functional, cell-based; conditions: HT-29, 72 h

## CN1C(=O)C=C(c2cc(I)cc3c2N(C(=O)C(C)(C)C)CC3)C1=O
RKO [1]
  Activity: 57.09%

## CN1C(=O)C=C(c2cccc3c2N(C(=O)c2cc4ccccc4o2)CC3)C1=O
RKO [1]
  Activity: 46.33%
HCT-116 [2]
  Activity: 11.36%

## C=CC(=O)N1CCc2cccc(C3=CC(=O)N(C)C3=O)c21
RKO [1]
  Activity: 78.18%
HCT-116 [2]
  Activity: 23.11%
HT-29 [3]
  Activity: 2.14%

## CCc1ccc(N2C(=O)C=C(c3cccc4c3N(C(=O)C(C)(C)C)CC4)C2=O)cc1
RKO [1]
  Activity: 7.21%
HCT-116 [2]
  Activity: 10.96%
HT-29 [3]
  Activity: 7.09%

## CC(=O)N1CCc2cccc(C3=CC(=O)N(C)C3=O)c21
RKO [1]
  Activity: 48.13%
HT-29 [3]
  Activity: 6.8%

## CC1CN(C(=O)C(C)(C)C)c2c(C3=CC(=O)N(C)C3=O)cccc21 (stereo not drawn)
RKO [1]
  Activity: 56.28%
HT-29 [3]
  Activity: 6.02%

## CC(C)(C)C(=O)N1CCc2cccc(C3=CC(=O)NC3=O)c21
RKO [1]
  Activity: 10.96%

## C=C(C)C(=O)N1CCc2ccccc21
HT-29 [3]
  Activity: 4.7%

## CC(C)(C)C(=O)N1CCc2cccc(C3=CC(=O)N(c4ccccc4)C3=O)c21
RKO [1]
  Activity: 10.63%

## CN1C(=O)C=C(c2cc(C#N)cc3c2N(C(=O)C(C)(C)C)CC3)C1=O
RKO [1]
  Activity: 50.21%
HT-29 [3]
  Activity: 4.68%

## COC(=O)CCN1C(=O)C=C(c2cccc3c2N(C(=O)C(C)(C)C)CC3)C1=O
RKO [1]
  Activity: 59.55%
HCT-116 [2]
  Activity: 21.18%

## O=c1[nH]cc(F)c(=O)[nH]1 [FLUOROURACIL]
RKO [1]
  Activity: 52.32%
[4]
  IC50 at 72 h: 7.95 µM
HCT-116 [2]
  Activity: 37.53%
HCT-116 [5]
  pIC50: 5.10
HT-29 [3]
  Activity: 29.52%
RKO [6]
  pIC50: 5.40

## CN1C(=O)C=C(c2cccc3c2N(C(=O)c2ccccc2)CC3)C1=O
RKO [1]
  Activity: 26.15%
HT-29 [3]
  Activity: 4.95%

## CN1C(=O)C=C(c2cccc3c2N(C(=O)C2CCCCC2)CC3)C1=O
RKO [1]
  Activity: 65.05%

## CN1C(=O)C=C(c2cccc3c2N(C(=O)N2CCOCC2)CC3)C1=O
RKO [1]
  Activity: 22.03%
HT-29 [3]
  Activity: 6.82%

## C=C(C)C(=O)n1ccc2cccc(C3=CC(=O)N(C)C3=O)c21
RKO [1]
  Activity: 58.25%
HCT-116 [2]
  Activity: 32.89%
HT-29 [3]
  Activity: 10.28%

## CN1C(=O)C=C(c2cc(F)cc3c2N(C(=O)C(C)(C)C)CC3)C1=O
RKO [1]
  Activity: 78.58%
HCT-116 [2]
  Activity: 6.51%
HT-29 [3]
  Activity: 18.8%

## CC1Cc2cccc(C3=CC(=O)N(C)C3=O)c2N1C(=O)C(C)(C)C (stereo not drawn)
RKO [1]
  Activity: 61.74%
HT-29 [3]
  Activity: 2.07%

## CN1C(=O)C=C(c2ccc(Cl)c3c2N(C(=O)C(C)(C)C)CC3)C1=O
RKO [1]
  Activity: 57.87%

## CN1C(=O)C=C(c2cccc3c2N(C(=O)C(C)(C)C)CC3)C1=O
HT-29 [7]
  pIC50: 5.26
RKO [1]
  Activity: 79.24%
HCT-116 [2]
  Activity: 76.85%
HCT-116 [5]
  pIC50: 5.40
HT-29 [3]
  Activity: 49.95%
RKO [6]
  pIC50: 5.64

## CN1C(=O)C=C(c2cc(Cl)cc3c2N(C(=O)C(C)(C)C)CC3)C1=O
RKO [1]
  Activity: 15.17%

## CN1C(=O)C=C(c2c(F)ccc3c2N(C(=O)C(C)(C)C)CC3)C1=O
RKO [1]
  Activity: 32.98%

## CCC(=O)N1CCc2cccc(C3=CC(=O)N(C)C3=O)c21
RKO [1]
  Activity: 80.31%
HCT-116 [2]
  Activity: 4.19%

## CN1C(=O)C=CC1=O
RKO [1]
  Activity: 33.16%
HCT-116 [2]
  Activity: 51.17%
HT-29 [3]
  Activity: 7.09%

## CC(C)(C)C(=O)N1CCc2cccc(C3=CC(=O)N(Cc4ccccc4)C3=O)c21
RKO [1]
  Activity: 39.93%

## CN1C(=O)C=C(c2cccc3c2N(C(=O)N2CCCCC2)CC3)C1=O
RKO [1]
  Activity: 17.85%

## CC(=O)c1ccc(N2C(=O)C=C(c3cccc4c3N(C(=O)C(C)(C)C)CC4)C2=O)cc1
HT-29 [3]
  Activity: 4.69%

## CCN1C(=O)C=C(c2cccc3c2N(C(=O)C(C)(C)C)CC3)C1=O
RKO [1]
  Activity: 80.91%
HCT-116 [2]
  Activity: 59.58%
HT-29 [3]
  Activity: 16.99%

## COc1ccc(C2=CC(=O)N(C)C2=O)c2c1CCN2C(=O)C(C)(C)C
RKO [1]
  Activity: 16.41%
HT-29 [3]
  Activity: 4.04%

## CN1C(=O)C=C(c2cccc3c2N(C(=O)C2CC2)CC3)C1=O
HT-29 [7]
  pIC50: 5.29
RKO [1]
  Activity: 88.42%
HCT-116 [2]
  Activity: 76.22%
HCT-116 [5]
  pIC50: 5.46
HT-29 [3]
  Activity: 43.87%
RKO [6]
  pIC50: 5.67

## CN(C)C(=O)N1CCc2cccc(C3=CC(=O)N(C)C3=O)c21
RKO [1]
  Activity: 4.75%
HT-29 [3]
  Activity: 5.08%

## COc1ccc2c(c1C1=CC(=O)N(C)C1=O)N(C(=O)C(C)(C)C)CC2
RKO [1]
  Activity: 21.09%

## CC(C)(C)C(=O)N1CCc2cccc(C3=CC(=O)N(C4CCCCC4)C3=O)c21
RKO [1]
  Activity: 38.47%

## Cc1cc2c(c(C3=CC(=O)N(C)C3=O)c1)N(C(=O)C(C)(C)C)CC2
RKO [1]
  Activity: 17.49%

## CC(C)N1C(=O)C=C(c2cccc3c2N(C(=O)C(C)(C)C)CC3)C1=O
RKO [1]
  Activity: 19.15%

Reference: ChEMBL document CHEMBL5550173, “Design, synthesis and biological evaluation of indoline-maleimide conjugates as potential antitumor agents for the treatment of colorectal cancer” (Bioorg Med Chem, 2024)
